From patent US10351871B2, “Desaturases and methods of using them for synthesis of polyunsaturated fatty acids” (Washington State University, priority 1998, dated 2019)

Molecular target: T1, Δ^5-desaturase (Caenorhabditis elegans, UniProt G5EG11)
T1 construct: expressed in transfected cells; host or cells: Arabidopsis plants (seed) doubly transformed with Δ8 and Δ5 constructs
T1 sequence (G5EG11 1-447): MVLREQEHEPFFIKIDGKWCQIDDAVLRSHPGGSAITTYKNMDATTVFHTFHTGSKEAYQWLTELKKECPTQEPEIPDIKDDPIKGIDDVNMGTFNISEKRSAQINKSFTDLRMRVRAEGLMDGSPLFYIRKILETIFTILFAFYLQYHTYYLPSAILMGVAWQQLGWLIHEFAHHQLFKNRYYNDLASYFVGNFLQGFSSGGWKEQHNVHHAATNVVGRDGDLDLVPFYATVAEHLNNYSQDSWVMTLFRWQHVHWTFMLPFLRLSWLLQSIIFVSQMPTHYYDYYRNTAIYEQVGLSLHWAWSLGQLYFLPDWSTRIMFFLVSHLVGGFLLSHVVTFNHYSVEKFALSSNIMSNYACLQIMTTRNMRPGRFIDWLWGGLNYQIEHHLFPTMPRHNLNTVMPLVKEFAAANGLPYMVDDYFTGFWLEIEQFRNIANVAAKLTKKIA
Assay: Arabidopsis plants doubly transformed with both desaturases, seed fatty acid methyl ester analysis
Assay type: in vivo
Conditions: seed from plants doubly transformed with both desaturases
Description: For example, the expression of the Δ^5- and Δ^8-desaturases in a plant, such as Arabidopsis, can be achieved by constructing a plant transformation vector to introduce the cDNA of each desaturase into the plant. The vector can contain a tissue specific promoter so that the desaturase protein will be expressed during seed development. Examples of seed specific promoters include that for phaseolin (van der Geest and Hall, Plant Mol. Biol. 32:579-88, 1996) or the promoter for napin (Stalberg et al., Plant Mol. Biol. 23: 671-83, 1993). Other seed-specific promoters that can be used are those located on the genomic BAC clone T24A18 (LOCUS ATT24A18. (1999) 45980 bp Arabidopsis thaliana DNA chromosome 4, ACCESSION # AL035680, NID g4490701) of the Arabidopsis genome. […] Transformation of Arabidopsis is readily achieved using the Agrobacterium-mediated vacuum infiltration process (Katavic et al., Mol. Gen. Genet. 245:363-70, 1994) or the floral dip modification of it (Clough and Bent, Plant J. 16:735-43, 1998), although several other methods are also commonly used. […] Since the Δ^8 and Δ^5 constructs use different selectable markers the double transformants are readily isolated. […] The seeds of transformed plants are analyzed by isolation of fatty acid methyl esters followed by gas chromatography to determine the fatty acid composition.

## CCCCCCCCC=CCC=CCCCCCCC(=O)O [20:Δ^8,11]
  conversion to 20:3Δ^5,8,11 in seed: convert
